Source: patent publication US11773108B2, “Indene derivatives useful in treating pain and inflammation” (TARO PHARMACEUTICALS INC., priority 2018, dated 2023)
Read-outs that look alike come from different tables or passages of the source.

How the values were obtained:
[1] = Metabolism by human liver microsomes; assay type: in vitro ADME; details: human liver microsomes 1 mg/mL protein, 10 μM, in the presence of NADPH, LC-MS/MS
Description: Representative compounds of the invention (i.e., test compounds) and the positive control, 7-ethoxycoumarin, were prepared as stock solutions at 10 mM in DMSO and eventually diluted to 10 μM in the test plate, with an appropriate amount of acetonitrile and tris HCl buffer. Final DMSO and acetonitrile concentrations were […] and 0.5% respectively. NADPH was prepared in tris HCl buffer to a stock of 10 mM. A frozen aliquot of liver microsomes was retrieved from the freezer (−80° C.) and thawed by placing the tube on wet ice. After thawing, the tubes were gently mixed and the required amount, transferred to tris HCl buffer. Test compounds or positive control were pre-incubated, separately, for 10 minutes, with liver microsomes (1 mg/mL protein), at 37° C., in 100 mM Tris HCl at pH 7.5. After preincubation the reaction was started by adding 1 mM NADPH (pre-equilibrated to 30° C.) and the reaction allowed to proceed for 60 minutes. At 60 minutes, a 50 μL aliquot was removed and quenched with 200 uL of acetonitrile containing a mixture of internal standards (Tolbutamide (500 ng/mL) and Telmistartan (500 ng/mL)) and vortexed then centrifuged at 4000 rpm for 10 minutes (Eppendorf 5810R). The supernatant was transferred to a 96 well plate for LC-MS/MS analysis.
An LC-MS/MS method was devised for the test compounds and the control, using a AB Sciex API 4000 system coupled to a NEXAR™ UHPLC (Shimadzu) system. Analytes were separated on a Phenomenex Kinetex C18 column (50×2.1 mm, 5 μm) using a gradient that was appropriate for each compound, at a flow rate of 1 ml/minute, utilizing a mobile phase of 0.1% formic acid in MILLI-Q™ water (A) and 0.1% formic acid in acetonitrile (B). The MS instrument was operated in positive mode (ESI+)/negative (ESI−). The multiple reaction monitoring (MRM) transition for test and control compounds was used for the LC-MS/MS analysis. MRM transitions for control compound 7-ethoxycoumarinm were Quadropole 1: 191.0, Quadropole 3:163.0, dwell time: 75 msec, using curtain gas settings of 5 V, ion-spray voltage of 5500 V, temperature of 50° C. and gas settings for nebulizer and auxiliary set to 30 and 40 psi, respectively. The interface heater was kept on. Entrance potential and collision cell exit potential were varied to tune for a specific compound.
Using a suitable LC-MS/MS method, the percentage of drug remaining at 60 minutes ([…]) was assessed by comparing the average analyte to internal standard area ratio at 60 minutes to the average analyte to internal standard area ratio at 0 time control, as a percentage, from a 5 to 10 μL sample injection.
According to the above assay, the test compounds listed in Table 7 below were active in the Human liver microsome assay at 10 μM and the % of drug remaining after 60 minutes (PDR60), in the presence of NADPH, was assessed by LC-MS/MS. Average PDR60 for the standard compound, 7-ethoxycoumarin was <=65% in the presence of NADPH. Scoring for the test compounds, in the presence of NADPH, was as follows: “A” represents a PDR60 of 81 to 100%, “B” represents a PDR60 of 61 to 80%, “C” represents a PDR60 of 31 to 60% and “D” represents a PDR60 of 0 to 30%.

[2] = system: rat dorsal root ganglion (DRG) cells; assay: Rat dorsal root ganglion (DRG) excitability response to electrical field stimulation; assay type: cell-based; details: adult rat DRG cells
Description: Rat Dorsal Root Ganglion Excitability Response of Representative Compounds Dorsal root ganglions (DRGs) were dissected from adult rats. The tissue was processed, and cells were seeded into cell culture plates (48 center wells of one quadrant in 384-well plates) and cultured for 2 days prior to Electrical field stimulation (EFS). To visualize the neuronal excitability response, intracellular Ca^+2 transients were monitored using the Ca^+2 indicator, Ca5. Ca5 was added to the cultures 1 h prior to EFS. Representative compounds of the invention (i.e., test compounds) and reference compound, tetracaine, were added in concentration-response format encompassing six concentrations, performed in duplicate. The highest concentration tested was typically 30 μM with 1 in 3 dilutions generating the subsequent concentrations.
Effects on DRG excitability by the test compounds and standard were evaluated using four EFS protocols as disclosed in Table 2.
Experimental results were performed using two seperate sets of plates using separate test compound and standard dilutions, to provide n=2. In the first set of experiments, compounds were added 24 h prior to EFS to increase the possibility to also detect more long-term compound effects. In the second set of experiments the compounds were added directly prior to EFS. Excitability response to EFS was analyzed as the average fluorescence ratio (peak/baseline) change per well. All plates were evaluated using high content imaging equipment post-EFS, imaging the Ca5 background staining to detect any possibile compound-related toxic effects.
Average response by the reference compound, tetracaine, was 4.05 μM.

[3] = Ca5 Ca2+ indicator, six concentrations, highest typically 30 μM, read-out: Scoring: EC50, modulation of rat DRG excitability

Scoring: % of drug remaining after 60 minutes (PDR60) [1]	Compound	EC50 [2, 3] [µM]	EC50 ([2]; reference compound, read-out: Average response (rat DRG excitability)) [µM]
D (“D” represents a PDR60 of 0 to 30%)	C=C1CC[C@H]2[C@H](CN)[C@@H]([C@@]3(C)Cc4cnn(-c5ccc(F)cc5)c4C[C@@H]3CO)CC[C@]12C [Ia-12, ((5R,6S)-5-((3aS,4R,5S,7aS)-4-(aminomethyl)-7a-methyl-1-methyleneoctahydro-1H-inden-5-yl)-1-(4-fluorophenyl)-5-methyl-4,5,6,7-tetrahydro-1H-indazol-6-yl)methanol]	< 2	
B (“B” represents a PDR60 of 61 to 80%)	C=C1CC[C@H]2[C@H](CN)[C@@H]([C@@]3(C)Cc4cnn(-c5ccc(C(=O)c6ccccc6)cc5)c4C[C@@H]3CO)CC[C@]12C [Ia-20, (4-((5R,6S)-5-((3aS,4R,5S,7aS)-4-(aminomethyl)-7a-methyl-1-methyleneoctahydro-1H-inden-5-yl)-6-(hydroxymethyl)-5-methyl-4,5,6,7-tetrahydro-1H-indazol-1-yl)phenyl)(phenyl)methanone]	< 2	
D (“D” represents a PDR60 of 0 to 30%)	C=C1CC[C@H]2[C@H](CN)[C@@H]([C@@]3(C)Cc4cnn(-c5ncc(F)cn5)c4C[C@@H]3CO)CC[C@]12C [Ia-26, ((5R,6S)-5-((3aS,4R,5S,7aS)-4-(aminomethyl)-7a-methyl-1-methyleneoctahydro-1H-inden-5-yl)-1-(5-fluoropyrimidin-2-yl)-5-methyl-4,5,6,7-tetrahydro-1H-indazol-6-yl)methanol]	6 to 15	
A (“A” represents a PDR60 of 81 to 100%)	COc1ccc(Cn2cc3c(n2)C[C@H](CO)[C@@](C)([C@H]2CC[C@]4(C)[C@@H](C)CC[C@H]4[C@@H]2CN)C3)cc1 [Ia-52, ((5R,6S)-5-((1S,3aS,4S,5S,7aR)-4-(aminomethyl)-1,7a-dimethyloctahydro-1H-inden-5-yl)-2-(4-methoxybenzyl)-5-methyl-4,5,6,7-tetrahydro-2H-indazol-6-yl)methanol]	< 2	

Continued, molecule first:

Compound	Scoring: % of drug remaining after 60 minutes (PDR60) [1]	EC50 [2, 3] [µM]	EC50 ([2]; reference compound, read-out: Average response (rat DRG excitability)) [µM]
C=C1CC[C@H]2[C@H](CN)[C@@H]([C@@]3(C)Cc4cn(-c5ccc(OC)cc5)nc4C[C@@H]3CO)CC[C@]12C [Ia-15, ((5R,6S)-5-((3aS,4R,5S,7aS)-4-(aminomethyl)-7a-methyl-1-methyleneoctahydro-1H-inden-5-yl)-2-(4-methoxyphenyl)-5-methyl-4,5,6,7-tetrahydro-2H-indazol-6-yl)methanol]	B (“B” represents a PDR60 of 61 to 80%)	6 to 15	
C=C1CC[C@H]2[C@H](CN)[C@@H]([C@@]3(C)Cc4cnn(-c5ccc(F)c(F)c5)c4C[C@@H]3CO)CC[C@]12C [Ia-22, ((5R,6S)-5-((3aS,4R,5S,7aS)-4-(aminomethyl)-7a-methyl-1-methyleneoctahydro-1H-inden-5-yl)-1-(3,4-difluorophenyl)-5-methyl-4,5,6,7-tetrahydro-1H-indazol-6-yl)methanol]	D (“D” represents a PDR60 of 0 to 30%)	< 2	
C=C1CC[C@H]2[C@H](CN)[C@@H]([C@@]3(C)Cc4cnn(-c5ccc(Oc6ccc(F)cc6)cc5)c4C[C@@H]3CO)CC[C@]12C [Ia-24, ((5R,6S)-5-((3aS,4R,5S,7aS)-4-(aminomethyl)-7a-methyl-1-methyleneoctahydro-1H-inden-5-yl)-1-(4-(4-fluorophenoxy)phenyl)-5-methyl-4,5,6,7-tetrahydro-1H-indazol-6-yl)methanol]	B (“B” represents a PDR60 of 61 to 80%)	< 2	
C=C1CC[C@H]2[C@H](CN)[C@@H]([C@@]3(C)Cc4cn(-c5ncc(F)cn5)nc4C[C@@H]3CO)CC[C@]12C [Ia-27, ((5R,6S)-5-((3aS,4R,5S,7aS)-4-(aminomethyl)-7a-methyl-1-methyleneoctahydro-1H-inden-5-yl)-2-(5-fluoropyrimidin-2-yl)-5-methyl-4,5,6,7-tetrahydro-2H-indazol-6-yl)methanol]	C (“C” represents a PDR60 of 31 to 60%)	6 to 15	
C=C1CC[C@H]2[C@H](CN)[C@@H]([C@@]3(C)Cc4cnn(-c5ccc(Oc6ccccc6)cc5)c4C[C@@H]3CO)CC[C@]12C [Ia-28, ((5R,6S)-5-((3aS,4R,5S,7aS)-4-(aminomethyl)-7a-methyl-1-methyleneoctahydro-1H-inden-5-yl)-5-methyl-1-(4-phenoxyphenyl)-4,5,6,7-tetrahydro-1H-indazol-6-yl)methanol]	B (“B” represents a PDR60 of 61 to 80%)	< 2	
C=C1CC[C@H]2[C@H](CN)[C@@H]([C@@]3(C)Cc4cn(-c5ccc(Oc6ccccc6)cc5)nc4C[C@@H]3CO)CC[C@]12C [Ia-29, ((5R,6S)-5-((3aS,4R,5S,7aS)-4-(aminomethyl)-7a-methyl-1-methyleneoctahydro-1H-inden-5-yl)-5-methyl-2-(4-phenoxyphenyl)-4,5,6,7-tetrahydro-2H-indazol-6-yl)methanol]	C (“C” represents a PDR60 of 31 to 60%)	< 2	
C=C1CC[C@H]2[C@H](CN)[C@@H]([C@@]3(C)Cc4cnn(-c5ccc(Oc6ccc(C(=O)O)cc6)cc5)c4C[C@@H]3CO)CC[C@]12C [Ia-36, 4-(4-((5R,6S)-5-((3aS,4R,5S,7aS)-4-(aminomethyl)-7a-methyl-1-methyleneoctahydro-1H-inden-5-yl)-6-(hydroxymethyl)-5-methyl-4,5,6,7-tetrahydro-1H-indazol-1-yl)phenoxy)benzoic acid]	A (“A” represents a PDR60 of 81 to 100%)	> 15	
C[C@H]1CC[C@H]2[C@H](CN)[C@@H]([C@@]3(C)Cc4cnn(-c5ccc(F)cc5)c4C[C@@H]3CO)CC[C@]12C [Ia-47, ((5R,6S)-5-((1S,3aS,4S,5S,7aR)-4-(aminomethyl)-1,7a-dimethyloctahydro-1H-inden-5-yl)-1-(4-fluorophenyl)-5-methyl-4,5,6,7-tetrahydro-1H-indazol-6-yl)methanol]		< 2	
CCCCNc1ccc(C(=O)OCCN(C)C)cc1 [tetracaine, reference compound]			4.05
